Experimental data: PubChem BioAssay (NCI)
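Interpolation was linear, between the two tested concentrations surrounding the appropriate level; five concentrations were tested over 48 hours in 96-well plates. TGI is the concentration that stops growth completely.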 Where a SMILES comes first, the peptide text is derived from it. The star is where a group is joined. Boc = CC(C)(C)OC(=O)*

What was measured:
Experiment in all cases: growth of human tumour cells (NCI), 48 h
[1] = system: SF-268 CNS
[2] = system: MOLT-4 leukemia
[3] = system: NCI/ADR-RES ovarian
[4] = system: KM12 colon
[5] = system: SR leukemia
[6] = system: SW-620 colon
[7] = system: UACC-257 melanoma
[8] = system: PC-3 prostate
[9] = system: 786-0 renal
[10] = system: SK-OV-3 ovarian
[11] = system: RPMI-8226 leukemia
[12] = system: NCI-H23 lung
[13] = system: BT-549 breast

Compound	TGI [1]	TGI [2]	TGI [3]	TGI [4]	TGI [5]	TGI [6]	TGI [7]	TGI [8]	TGI [9]	TGI [10]	TGI [11]	TGI [12]	TGI [13]
O=C(Nc1ccc(Br)cc1)c1c(-c2ccccc2)c2ccc(O)cc2oc1=O	> 10 µM	> 10 µM	> 10 µM	> 10 µM	> 10 µM	> 10 µM	> 10 µM	> 10 µM	> 10 µM	> 10 µM	> 10 µM	> 10 µM	
CC(C)=CCOC(=O)C(C)=[N+]=[N-]	> 100 µM	> 100 µM	> 100 µM	> 100 µM	> 100 µM	> 100 µM	> 100 µM	> 100 µM	> 100 µM		> 100 µM	> 100 µM	> 100 µM
CCN1CC2=C(NC(=S)NC2c2ccc(Cl)cc2)/C(=C/c2ccc(Cl)cc2)C1 (stereo not given)	> 100 µM	79.2 µM	> 100 µM	> 100 µM		> 100 µM	> 100 µM	> 100 µM	> 100 µM	> 100 µM	90.9 µM	> 100 µM	> 100 µM
O=C(CN1c2ccccc2Sc2ccccc21)N1CCNCC1	> 100 µM	> 100 µM	> 100 µM	> 100 µM		> 100 µM	> 100 µM	> 100 µM	> 100 µM	> 100 µM	> 100 µM	> 100 µM	> 100 µM
COC(=O)CNC(=O)C(Cc1ccccc1)NC(=O)C(CCSC)NC(=O)C(Cc1ccc(O)cc1)NC(=O)OC(C)(C)C (stereo not given) (Boc-YMFG-OMe; configuration not given here)	87.7 µM	38.9 µM	> 100 µM	> 100 µM		> 100 µM	38.2 µM	> 100 µM	> 100 µM	> 100 µM	50.2 µM	> 100 µM	> 100 µM
COc1cc(/C=C2/C(=O)N(C(=O)c3ccccc3O)N=C2C)cc(OC)c1OC	> 100 µM	> 100 µM	> 100 µM	> 100 µM		> 100 µM	> 100 µM	> 100 µM	> 100 µM	> 100 µM	> 100 µM	> 21.8 µM	> 100 µM
Cc1c(-c2nc3ccccc3[nH]2)c(=O)n(-c2ccccc2)n1C	> 100 µM	> 100 µM	> 100 µM	> 100 µM		> 100 µM	> 100 µM	> 100 µM	> 100 µM	> 100 µM	> 100 µM	> 100 µM	> 100 µM
CN(C)CCCOC(=O)C(c1ccccc1)C1(O)CCSCC1 (stereo not given)	> 100 µM	> 100 µM	> 100 µM	> 100 µM	> 100 µM	> 100 µM	> 100 µM	> 100 µM	> 100 µM	> 100 µM	> 100 µM	> 100 µM	
Nc1ccc2nc(-c3ccccn3)c(-c3ccccn3)nc2c1	> 100 µM	> 100 µM	> 100 µM	> 100 µM	> 100 µM	> 100 µM	> 100 µM	> 100 µM	> 100 µM		> 100 µM		> 100 µM
CC(O[Si](c1ccccc1)(c1ccccc1)C(C)(C)C)[C@H](NC(=O)OC(C)(C)C)C(=O)O[Si](c1ccccc1)(c1ccccc1)C(C)(C)C (stereo not given in full)	31.1 µM	53.1 µM	29 µM	24.3 µM	82 µM	32.1 µM	28.8 µM	20.5 µM	25.9 µM	30 µM	62.6 µM	26.1 µM	
CSc1nc(Cl)c2c(n1)Sc1nc3cc4c(cc3n1C2O)OCCO4 (stereo not given)	80.3 µM	16.7 µM	0.407 µM	> 100 µM		25.2 µM	36.1 µM	65.2 µM	14.9 µM	> 53.4 µM	2 µM	19.9 µM	23.3 µM
O=C(CC(=O)n1nc(-c2ccccc2)c(N=Nc2ccccc2C(=O)O)c1-c1ccccc1)Nc1ccc(Cl)cc1		27.9 µM		> 100 µM	42 µM	> 100 µM	> 100 µM	> 100 µM	> 100 µM		> 100 µM	93.9 µM	93 µM
CN1C(=O)C2C(=O)N(Cc3ccccc3)CC(=O)N2c2cccnc21 (stereo not given)	> 100 µM	> 100 µM	> 100 µM	> 100 µM	> 100 µM		> 100 µM	> 100 µM	> 100 µM	> 100 µM	> 100 µM	> 100 µM	> 100 µM
S=C(N/N=C\C=N/NC(=S)N1CCCCC1)N1CCCCC1	> 100 µM		> 22.3 µM	> 100 µM		> 100 µM	> 100 µM	> 100 µM	> 31.6 µM	> 100 µM	> 100 µM	> 40.1 µM	> 100 µM
OCC1CCCCCCCCCCC12SCCCS2 (stereo not given)	> 100 µM	> 100 µM	> 100 µM	> 100 µM	> 100 µM	> 100 µM		> 100 µM	> 100 µM	> 100 µM	> 100 µM	> 100 µM	> 100 µM
CN(C)CCCOc1nc2c(c(=O)n(C)c(=O)n2C)n1C (tested in a mixture with another compound)	> 100 µM	13.9 µM	> 100 µM	> 100 µM		> 100 µM	> 100 µM	> 100 µM	> 100 µM	> 100 µM	> 100 µM	97.6 µM	> 100 µM
O=C(/C=C/c1ccc(O)c([N+](=O)[O-])c1)CC(=O)/C=C/c1ccc(O)c([N+](=O)[O-])c1	> 100 µM		> 100 µM	97.6 µM		> 100 µM	> 100 µM	> 100 µM	> 100 µM	> 100 µM	34.5 µM	> 100 µM	> 100 µM
COc1cc(O)c(/C=N/N=C(\N)NO)c(OC)c1	> 10 µM		> 10 µM	> 10 µM		> 10 µM	> 10 µM	> 10 µM	> 10 µM	> 10 µM	> 10 µM	> 10 µM	> 10 µM
